In patent US20040253255A1, “Biological compositions and methods for treatment of nasopharyngeal cancer” (priority 2003, published 2004):
Like-named read-outs stand apart in the source and are kept apart here.

How the values were obtained:
[1] = test system: human nasopharyngeal cancer; assay type: in vivo, mice; conditions: for Number of live animals remaining in the groups after 30 days of treatment: mice, 30 per group
Method: The biological composition comprising […] per ml of activated and conditioned yeast cells of the strain Saccharomyces carlsbergensis Hansen strain AS2.116 was prepared by the methods described in Section 5.1 and subsections therein.
The animals were prepared in a similar manner as described in Section 8.1.
(§1) The mice injected with tumor cells were divided into 4 experimental groups of ten mice per group and one control group. The four experimental groups were triplicated (i.e., using a total of 120 mice in the experimental groups). In group 2AY, the mice received 0.3 ml of the biological composition once per day. In group 2NY, the mice received 0.3 ml of the untreated yeast cells once per day. In group 2CTX, the mice were injected intravenously with 30 mg of cyclophosphamide (CTX) per kg body weight per day. In group 2CK1, the mice received 0.3 ml of physiological saline once per day.
(§2) The mice received the biological compositions, untreated yeast cells, CTX or saline on the same day as the tumor cells were transplanted. The mice in group 2CK2 also started receiving saline on the same day as the other four groups. The biological compositions, untreated yeast cells and saline were administered orally by a feeding tube and the CTX by intravenous injection for 30 consecutive days. The mice were observed over 6 months from the day of tumor inoculation and survival was recorded. The weight of the mice and the weight of the tumor were determined by standard techniques.

[2] = test system: human nasopharyngeal cancer; assay type: in vivo; conditions: tumor-bearing mice, 30 consecutive days of treatment, sacrificed on 31st day
Method: The mice injected with tumor cells were divided into 4 experimental groups of ten mice per group and one control group. The four experimental groups were triplicated (i.e., using a total of 120 mice in the experimental groups).
The mice in group CK2 also started receiving saline on the same day as the other four groups. The biological compositions, untreated yeast cells and saline were administered orally by a feeding tube and the CTX by intravenous injection for 30 consecutive days.

[3] = test system: human nasopharyngeal cancer; assay: rat model of human nasopharyngeal cancer, growth of the tumor; assay type: in vivo; conditions: tumor-bearing Wistar rats, 21 consecutive days of treatment, sacrificed on 22nd day
Method: (§3) The biological composition comprising 10^8 cells per ml of activated and conditioned yeast cells of the strain Saccharomyces carlsbergensis Hansen strain AS2.116 was prepared by the methods described in Section 5.1 and subsections therein.
The animals used to generate the nasopharyngeal cancer cells for the experiments were Wistar rats, male and female, 190 to 210 gram in body weight. The rats were starved for 24 hours before the surgery.
Human nasopharyngeal cancer samples (obtainable from Cancer Institute, The Chinese Academy of Medical Sciences, Beijing, China) were carefully selected before, during, and after surgery in order to ensure engraftment occurred at the original position in the rat. The nasopharyngeal cancer samples were obtained from patients who have not received any radiation, chemotherapy or immune enhancement treatment. Nasopharyngeal cancer samples were divided into sections of about 1 mm^3 in size and immediately stored in RPMI-1640 suspension after removal from the human patient.
The animals were generally anaesthetized. […]
The rats received the biological compositions, untreated yeast cells, TSPA or saline on the same day as the tumor cells were transplanted. […] On the 22nd day from tumor inoculation, the rats were sacrificed and the weight of the rats as well as the weight of the tumor were determined by standard techniques.

[4] = test system: human nasopharyngeal cancer; assay: rat model of human nasopharyngeal cancer, survival time; assay type: in vivo, Wistar rats; conditions: for Number of live animals remaining in the groups after 21 days of treatment: rats, 30 per group
Method: as §3
The animals were prepared in a similar manner as described in Section 6.1.
as §1, with “rats transplanted” for “mice injected”, “rats” for “mice”, “2.0” for “0.3”, “2TSPA,” for “2CTX,”, “1.5” for “with 30”, “thiotepa (TSPA)” for “cyclophosphamide (CTX)”
as §2, with “rats” for “mice”, “TSPA” for “CTX”, “21” for “30”

[5] = 0 month after cessation of treatment
[6] = 1 month after cessation of treatment
[7] = 2 months after cessation of treatment
[8] = 3 months after cessation of treatment
[9] = 4 months after cessation of treatment
[10] = 5 months after cessation of treatment
[11] = 6 months after cessation of treatment
[12] = mice that survived, observed over 6 months
[13] = rats that survived, observed over 6 months

O=P1(N(CCCl)CCCl)NCCCO1 (stereo not drawn) [CTX, cyclophosphamide]
Number of live animals remaining in the groups after 30 days of treatment [1, 5]: 30 | Number of live animals remaining in the groups after 30 days of treatment [1, 6]: 27 | Number of live animals remaining in the groups after 30 days of treatment [1, 7]: 17 | Number of live animals remaining in the groups after 30 days of treatment [1, 8]: 11 | Number of live animals remaining in the groups after 30 days of treatment [1, 9]: 3 | Number of live animals remaining in the groups after 30 days of treatment [1, 10]: 0 | Number of live animals remaining in the groups after 30 days of treatment [1, 11]: 0 | survival of mice ([1]; observed over 6 months): all died during the experiment | mean weight of mice and standard deviation [2]: 19.7 ± 2.4 g | mean weight of tumor nodules and standard deviation [2]: 0.86 ± 0.13 g

S=P(N1CC1)(N1CC1)N1CC1 [TSPA, thiotepa]
mean weight of rats and standard deviation [3]: 207 ± 3.8 g | mean weight of tumor nodules and standard deviation [3]: 1.6 ± 0.74 mg | mean weight of mice and standard deviation [1, 12]: all animals dead | mean weight of tumor nodules and standard deviation [1, 12]: all animals dead | survival of rats ([4]; from injection of tumor cells): all died after four months from injection of tumor cells | mean weight of rats and standard deviation [4, 13]: all animals dead | mean weight of tumor nodules and standard deviation [4, 13]: all animals dead | Number of live animals remaining in the groups after 21 days of treatment [4, 5]: 30 | Number of live animals remaining in the groups after 21 days of treatment [4, 6]: 26 | Number of live animals remaining in the groups after 21 days of treatment [4, 7]: 24 | Number of live animals remaining in the groups after 21 days of treatment [4, 8]: 17 | Number of live animals remaining in the groups after 21 days of treatment [4, 9]: 7 | Number of live animals remaining in the groups after 21 days of treatment [4, 10]: 0 | Number of live animals remaining in the groups after 21 days of treatment [4, 11]: 0
